The values below come from patent publication US20250092044A1, “Kinase Inhibitors” (Incyte Corporation, priority 2023, published 2025).

Experiment [1] has as its target pseudo-kinase domain (JH2) of human V617F mutant JAK2 (Homo sapiens (Human), UniProt O60674, F794H/V617F/W659A/W777A). The experiment is described as follows: JAK2 LanthaScreen JH2-V617F Binding Assay. Particulars: read-out: JH2 V617F Bind IC50. In a few lines: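 Biotinylated His-Avi JAK2 JH2 (aa 536-812, V617F plus W659A/W777A/F794H; 0.26 nM) incubated 1 h at 25 °C with compound, 50 nM fluorescent JH2 tracer and 0.25 nM streptavidin-Tb in Tris pH 7.5 buffer. TR-FRET tracer displacement read; nonspecific binding with 2 mM ATP; IC50 from four-parameter fit.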

In experiment [2] the target is FLT3 (Homo sapiens (Human), UniProt P36888). Put plainly: FLT3 Enzymatic Assay. Format: biochemical. Particulars: 1 mM ATP. In a few lines: (§1)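 Room-temperature HTRF kinase assay (665/620 nm ratio) with 0.011 nM FLT3, 1 mM ATP, 500 nM biotinylated TK substrate in HEPES pH 7.0 buffer with MgCl2 and DTT; 0.5% DMSO final. Read after 60 min incubation; IC50 fitted from percent control activity versus log concentration, no-ATP wells as negative control.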
FLT3 (Homo sapiens (Human), UniProt P36888), sequence (P36888 27-993, species assumed): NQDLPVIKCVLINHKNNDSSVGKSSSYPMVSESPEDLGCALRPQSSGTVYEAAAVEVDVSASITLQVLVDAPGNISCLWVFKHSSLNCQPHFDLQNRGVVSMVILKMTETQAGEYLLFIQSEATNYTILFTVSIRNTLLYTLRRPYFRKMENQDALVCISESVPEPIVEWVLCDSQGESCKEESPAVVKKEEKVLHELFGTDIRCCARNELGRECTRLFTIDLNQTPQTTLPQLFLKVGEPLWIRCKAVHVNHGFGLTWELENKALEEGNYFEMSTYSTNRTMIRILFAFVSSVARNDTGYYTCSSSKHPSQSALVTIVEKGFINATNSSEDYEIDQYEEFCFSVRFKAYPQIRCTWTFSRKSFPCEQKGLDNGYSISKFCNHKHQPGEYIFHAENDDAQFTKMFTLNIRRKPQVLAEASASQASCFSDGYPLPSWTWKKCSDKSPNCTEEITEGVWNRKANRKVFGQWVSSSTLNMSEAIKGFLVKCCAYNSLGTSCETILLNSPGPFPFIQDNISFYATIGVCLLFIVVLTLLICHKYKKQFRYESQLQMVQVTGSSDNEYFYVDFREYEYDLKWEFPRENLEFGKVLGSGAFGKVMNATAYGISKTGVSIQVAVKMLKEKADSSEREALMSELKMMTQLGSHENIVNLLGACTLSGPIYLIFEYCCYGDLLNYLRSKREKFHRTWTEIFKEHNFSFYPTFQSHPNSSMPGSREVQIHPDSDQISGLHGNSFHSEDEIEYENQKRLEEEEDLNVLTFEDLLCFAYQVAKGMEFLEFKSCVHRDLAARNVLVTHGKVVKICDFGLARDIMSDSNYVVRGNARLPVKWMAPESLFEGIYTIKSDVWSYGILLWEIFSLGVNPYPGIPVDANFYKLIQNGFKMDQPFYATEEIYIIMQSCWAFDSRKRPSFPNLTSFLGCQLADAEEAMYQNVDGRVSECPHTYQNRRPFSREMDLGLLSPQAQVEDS

For experiment [3], the system named is FLT3. Put plainly: FLT3 Enzymatic Assay. Format: biochemical. In a few lines: as §1
Experiment [4] has as its target TRKA (Homo sapiens (Human), UniProt P04629). The experiment is described as follows: TRKA Enzymatic Assay. Format: biochemical. Particulars: 1 mM ATP. Summed up:
(§2)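 Reaction contained 0.58 nM TRKA, 1 mM ATP, 500 nM biotinylated TK substrate and 62.5 nM SEB reagent in HEPES 50 mM pH 7.0 with 10 mM MgCl2, 1 mM DTT and 0.1 mM orthovanadate, 0.5% DMSO, ATP-initiated. After 60 min at room temperature, the TR-FRET 665/620 nm ratio was read. IC50 was fitted from percent control activity versus log concentration, with DMSO and no-ATP wells as controls.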

The subject of experiment [5] is TRKA. The experiment is described as follows: TRKA Enzymatic Assay. It is filed as biochemical. In a few lines:
as §2

Experiment [6] deals with pSTAT5 in SET-2 cells in whole blood. The experiment is described as follows: pSTAT5 SET-2 Whole Blood MSD Assay. As to conditions: Homo sapiens, 2 hour incubation, read-out: SET2 WB IC50. Format: cell-based. Here is the method: SET-2 cells shipped from ABS, RPMI1640 medium, Fetal Bovine Serum from Gibco, Phospho-STAT5a,b Whole Cell Lysate Kit from Mesoscale, Retronectin (Recombinant Human Fibronectin Fragment) from TaKaRa, 96 well cell culture plate flat bottom from Corning, lysis buffer from Cell Signaling Technology, and sterile PBS from Gibco. Whole Blood from by BioIVT.
SET-2 cells were cultured in RPMI media with 20% FBS at 37° C. humidified incubator supplied with 5% CO2. On the day of the assay, 40 uL per well of diluted retronectin working solution was added to sterile 96-well clear flat bottom tissue culture plates (1:200 dilution of retronectin in sterile PBS) and incubated at 37 C for 1 hour. After 1 hour, the retronectin working solution was aspirated and SET-2 cells were seeded at 100,000/well in RPMI+20% FBS. Cells were incubated overnight at 37° C. and 5% CO2. The next day, the medium was removed and 40 μL of diluted compounds in serum-free RPMI and whole blood was added to the cells for a 2 hour incubation at 37° C. and 5% CO2. The compound starting concentration is 20 μM and 2.5 fold serial diluted down to 0.21 nM. The whole blood and compound mixture was then aspirated off using the BlueCat plate washer and washed 1× with PBS. Cells were lysed by adding 40 μL of 3× complete lysis buffer and shaken at room temperature for 45-60 minutes (complete lysis buffer consists of Cell Signaling Technology lysis buffer diluted to 3× and supplemented with Mesoscale's protease inhibitor, phosphatase I inhibitor, and phosphatase II inhibitor). The pSTAT5 MSD plates were blocked by adding 150 μL of Blocker A solution per well to the MSD plates and incubated at room temperature with shaking at 400 rpm for one hour or longer. After blocking, plates were washed 3× with 300 μL/well of 1× Tris Wash Buffer. After lysis, added 25 μL per well of lysed sample was added to MSD plate and incubated with shaking at 4° C. wrapped in foil overnight. The next day, plates were washed again and 25 μL/well of diluted 1× Detection Antibody Solution, wrapped in foil, and incubated at room temperature with shaking at 400 rpm for 1 hour. Plates were then washed again and lastly, 150 μL/well of 1× Read Buffer T was added to all wells. Plates were analyzed on MSD Discovery within 5 minutes. […] Data analysis was performed in GraphPad Prism using a 4-parameter fit and data was reported as Average±SD.

TRKA (Homo sapiens (Human), UniProt P04629), sequence (P04629 33-796, species assumed): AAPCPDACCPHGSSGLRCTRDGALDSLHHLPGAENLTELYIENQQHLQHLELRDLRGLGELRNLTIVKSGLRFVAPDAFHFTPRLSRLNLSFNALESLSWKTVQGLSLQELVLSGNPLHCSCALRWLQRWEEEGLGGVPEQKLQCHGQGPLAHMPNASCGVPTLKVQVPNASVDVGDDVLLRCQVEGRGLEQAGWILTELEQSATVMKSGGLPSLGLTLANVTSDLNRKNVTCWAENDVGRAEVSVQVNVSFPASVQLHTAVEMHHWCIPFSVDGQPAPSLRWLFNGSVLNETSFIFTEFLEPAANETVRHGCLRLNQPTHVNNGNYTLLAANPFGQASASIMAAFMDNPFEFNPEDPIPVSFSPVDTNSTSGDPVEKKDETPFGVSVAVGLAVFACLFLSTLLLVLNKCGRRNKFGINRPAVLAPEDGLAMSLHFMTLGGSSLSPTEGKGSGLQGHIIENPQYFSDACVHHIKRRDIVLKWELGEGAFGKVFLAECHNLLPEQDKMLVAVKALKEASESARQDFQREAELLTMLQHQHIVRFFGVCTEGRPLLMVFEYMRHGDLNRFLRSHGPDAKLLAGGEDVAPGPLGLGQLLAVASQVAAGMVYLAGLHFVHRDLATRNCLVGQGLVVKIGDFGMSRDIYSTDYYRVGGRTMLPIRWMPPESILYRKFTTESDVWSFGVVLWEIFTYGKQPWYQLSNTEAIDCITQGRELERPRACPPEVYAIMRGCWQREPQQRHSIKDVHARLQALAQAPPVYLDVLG
pseudo-kinase domain (JH2) of human V617F mutant JAK2, sequence (O60674 536-812 V617F/W659A/W777A/F794H): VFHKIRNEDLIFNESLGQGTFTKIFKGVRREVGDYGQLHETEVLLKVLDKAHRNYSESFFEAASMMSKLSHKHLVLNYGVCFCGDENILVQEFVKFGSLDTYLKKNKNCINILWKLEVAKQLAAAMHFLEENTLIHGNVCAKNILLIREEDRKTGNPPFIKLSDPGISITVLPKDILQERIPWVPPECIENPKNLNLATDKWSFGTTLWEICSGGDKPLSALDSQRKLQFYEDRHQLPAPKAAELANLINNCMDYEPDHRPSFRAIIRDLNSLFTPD

For the compound `COCCNC(=O)c1ccc(-c2[nH]c3ncc4c(c3c2-c2ccc3c(cnn3C(C)C)c2)n([C@@H]2CC[C@@H](NC(=O)OC)C2)c(=O)n4C)cc1F` [Example 14, Methyl ((1R,3R)-3-(7-(3-fluoro-4-((2-methoxyethyl)carbamoyl)phenyl)-8-(1-isopropyl-1H-indazol-5-yl)-3-methyl-2-oxo-3,6-dihydroimidazo[4,5-d]pyrrolo[2,3-b]pyridin-1(2H)-yl)cyclopentyl)carbamate], the IC50 in experiment [1] was at most 10 nM; against FLT3 [2], above 2500 nM; on TRKA [4] it was above 2500 nM; in experiment [6], 5000 to 7500 nM. Moreover, the “Selectivity FLT3/JH2 V617F” value in the experiment with FLT3 [3] is listed as “****** (selectivity of >12500-fold)”. For the same compound, the “Selectivity TRKA/JH2 V617F” value with TRKA [5] is reported as “****** (selectivity of >12500-fold)”.
As for `COCCN(C)C(=O)c1ccc(-c2[nH]c3ncc4c(c3c2-c2ccc3c(cnn3C(C)C)c2)n([C@@H]2CC[C@@H](NC(=O)OC)C2)c(=O)n4C)cc1F` [Example 15, Methyl ((1R,3R)-3-(7-(3-fluoro-4-((2-methoxyethyl)(methyl)carbamoyl)phenyl)-8-(1-isopropyl-1H-indazol-5-yl)-3-methyl-2-oxo-3,6-dihydroimidazo[4,5-d]pyrrolo[2,3-b]pyridin-1(2H)-yl)cyclopentyl)carbamate], the IC50 in experiment [1] is at most 10 nM; against FLT3 [2], 1250 to 2500 nM; against TRKA [4], above 2500 nM; in experiment [6] it was 5000 to 7500 nM. For the same compound, the “Selectivity FLT3/JH2 V617F” value in the experiment on FLT3 [3] was “****** (selectivity of >12500-fold)”. For the same compound, the “Selectivity TRKA/JH2 V617F” value in the experiment on TRKA [5] is given as “****** (selectivity of >12500-fold)”.
For `COC(=O)N[C@@H]1CC[C@@H](n2c(=O)n(C)c3cnc4[nH]c(-c5ccc(C(=O)N6CCOCC6)c(F)c5)c(-c5ccc6c(cnn6C(C)C)c5)c4c32)C1` [Example 16, Methyl ((1R,3R)-3-(7-(3-fluoro-4-(morpholine-4-carbonyl)phenyl)-8-(1-isopropyl-1H-indazol-5-yl)-3-methyl-2-oxo-3,6-dihydroimidazo[4,5-d]pyrrolo[2,3-b]pyridin-1(2H)-yl)cyclopentyl)carbamate], the IC50 in experiment [1] was at most 10 nM; on FLT3 [2], 1250 to 2500 nM; against TRKA [4], 1250 to 2500 nM; in experiment [6], 2500 to 5000 nM. Further, the “Selectivity FLT3/JH2 V617F” value in the experiment with FLT3 [3] is listed as “****** (selectivity of >12500-fold)”. In addition, in the experiment on TRKA [5], the “Selectivity TRKA/JH2 V617F” value is recorded as “****** (selectivity of >12500-fold)”.
In the case of `CNC(=O)c1ccc(-c2[nH]c3ncc4c(c3c2-c2ccc3c(cnn3C(C)C)c2)n([C@@H]2CC[C@@H](NC(=O)OC)C2)c(=O)n4C)cc1` [Example 21, Methyl ((1R,3R)-3-(8-(1-isopropyl-1H-indazol-5-yl)-3-methyl-7-(4-(methylcarbamoyl)phenyl)-2-oxo-3,6-dihydroimidazo[4,5-d]pyrrolo[2,3-b]pyridin-1(2H)-yl)cyclopentyl)carbamate], the IC50 in experiment [1] is at most 10 nM; on FLT3 [2] it was 250 to 1250 nM; at TRKA [4], 1250 to 2500 nM; in experiment [6], above 7500 nM. For the same compound, the “Selectivity FLT3/JH2 V617F” value in the experiment with FLT3 [3] was “***** (selectivity of >5000-fold to ≤12500-fold)”. For the same compound, the “Selectivity TRKA/JH2 V617F” value in the experiment on TRKA [5] is recorded as “****** (selectivity of >12500-fold)”.
Consider `CCNC(=O)c1ccc(-c2[nH]c3ncc4c(c3c2-c2ccc3c(cnn3C(C)C)c2)n([C@@H]2CC[C@@H](NC(=O)OC)C2)c(=O)n4C)cc1` [Example 23, Methyl ((1R,3R)-3-(7-(4-(ethylcarbamoyl)phenyl)-8-(1-isopropyl-1H-indazol-5-yl)-3-methyl-2-oxo-3,6-dihydroimidazo[4,5-d]pyrrolo[2,3-b]pyridin-1(2H)-yl)cyclopentyl)carbamate], for which the half-inhibitory concentration (IC50) is at most 10 nM in experiment [1], 250 to 1250 nM against FLT3 [2], 1250 to 2500 nM against TRKA [4] and 2500 to 5000 nM in experiment [6]. In the experiment on FLT3 [3], the “Selectivity FLT3/JH2 V617F” value is “**** (selectivity of >1750-fold to ≤5000-fold)”. For the same compound, the “Selectivity TRKA/JH2 V617F” value in the experiment with TRKA [5] was “***** (selectivity of >5000-fold to ≤12500-fold)”.
Regarding `[2H]C([2H])([2H])N(Cc1ccc(-c2[nH]c3ncc4c(c3c2-c2ccc3c(c2)CC(C)(C)O3)n([C@@H]2CC[C@@H](NC(=O)OC)C2)c(=O)n4C([2H])([2H])[2H])cc1)C([2H])([2H])[2H]` [Example 25, Methyl ((1R,3R)-3-(7-(4-((bis(methyl-d3)amino)methyl)phenyl)-8-(2,2-dimethyl-2,3-dihydrobenzofuran-5-yl)-3-(methyl-d3)-2-oxo-3,6-dihydroimidazo[4,5-d]pyrrolo[2,3-b]pyridin-1(2H)-yl)cyclopentyl)carbamate], the half-inhibitory concentration (IC50) is at most 10 nM in experiment [1], 250 to 1250 nM against FLT3 [2], 250 to 1250 nM against TRKA [4] and at most 2500 nM in experiment [6]. Also, the “Selectivity FLT3/JH2 V617F” value with FLT3 [3] is “**** (selectivity of >1750-fold to ≤5000-fold)”. In addition, in the experiment on TRKA [5], the “Selectivity TRKA/JH2 V617F” value is recorded as “**** (selectivity of >1750-fold to ≤5000-fold)”.
For `[2H]C([2H])([2H])n1c(=O)n([C@@H]2CC[C@@H](NC(=O)OC)C2)c2c3c(-c4ccc5c(cnn5C(C)C)c4)c(-c4ccc(CN(C)C)cc4)[nH]c3ncc21` [Example 26, Methyl ((1R,3R)-3-(7-(4-((dimethylamino)methyl)phenyl)-8-(1-isopropyl-1H-indazol-5-yl)-3-(methyl-d3)-2-oxo-3,6-dihydroimidazo[4,5-d]pyrrolo[2,3-b]pyridin-1(2H)-yl)cyclopentyl)carbamate], the IC50 in experiment [1] is at most 10 nM; at FLT3 [2], 250 to 1250 nM; at TRKA [4], 1250 to 2500 nM; in experiment [6], at most 2500 nM. Further, the “Selectivity FLT3/JH2 V617F” value in the experiment with FLT3 [3] is “**** (selectivity of >1750-fold to ≤5000-fold)”. The “Selectivity TRKA/JH2 V617F” value in the experiment on TRKA [5] was “***** (selectivity of >5000-fold to ≤12500-fold)”.
As for `[2H]C([2H])([2H])N(Cc1ccc(-c2[nH]c3ncc4c(c3c2-c2ccc(OCCOC)cc2)n([C@@H]2CC[C@@H](NC(=O)OC)C2)c(=O)n4C([2H])([2H])[2H])cc1)C([2H])([2H])[2H]` [Example 27, Methyl ((1R,3R)-3-(7-(4-((bis(methyl-d3)amino)methyl)phenyl)-8-(4-(2-methoxyethoxy)phenyl)-3-(methyl-d3)-2-oxo-3,6-dihydroimidazo[4,5-d]pyrrolo[2,3-b]pyridin-1(2H)-yl)cyclopentyl)carbamate], the concentration for half-maximal inhibition (IC50) in experiment [1] was at most 10 nM; at FLT3 [2] it was 250 to 1250 nM; at TRKA [4], 1250 to 2500 nM; in experiment [6], at most 2500 nM. Moreover, the “Selectivity FLT3/JH2 V617F” value with FLT3 [3] is given as “*** (selectivity of >1500-fold to ≤1750-fold)”. Moreover, the “Selectivity TRKA/JH2 V617F” value in the experiment with TRKA [5] is reported as “***** (selectivity of >5000-fold to ≤12500-fold)”.
In the case of `COC(=O)N[C@@H]1CC[C@@H](n2c(=O)n(C)c3cnc4[nH]c(-c5ccc(CN(C)C)cc5)c(-c5ccc(F)cc5)c4c32)C1` [Example 28, Methyl ((1R,3R)-3-(7-(4-((dimethylamino)methyl)phenyl)-8-(4-fluorophenyl)-3-methyl-2-oxo-3,6-dihydroimidazo[4,5-d]pyrrolo[2,3-b]pyridin-1(2H)-yl)cyclopentyl)carbamate], the concentration for half-maximal inhibition (IC50) was at most 10 nM in experiment [1], 250 to 1250 nM against FLT3 [2], above 2500 nM against TRKA [4] and at most 2500 nM in experiment [6]. The “Selectivity FLT3/JH2 V617F” value with FLT3 [3] is listed as “** (selectivity of >500-fold to ≤1500-fold)”. In addition, the “Selectivity TRKA/JH2 V617F” value in the experiment on TRKA [5] is listed as “**** (selectivity of >1750-fold to ≤5000-fold)”.

What is called IC50 is the concentration needed to halve the response being measured.
